Source: US20070293576A1, “Pharmaceutical Methods, Dosing Regimes And Dosage Forms For The Treatment Of Alzheimer's Disease” (Myriad Genetics, Incorporated, priority 2003, published 2007)
Like-named read-outs stand apart in the source and are kept apart here.

Legend:
[1] = molecular target: cytochrome P450 (CYP) 2C9 (Homo sapiens, UniProt P11712); details: cited from earlier work
[2] = test system: patients with Alzheimer's disease; details: clinical trials; rofecoxib at 25 mg daily; cited from earlier work
[3] = test system: Aβ42; details: CHO cells; cited from earlier work
[4] = test system: COX; details: cited from earlier work
[5] = Phase I pharmacokinetic study of R-flurbiprofen in plasma, one compartment model; format: in vivo, human; details: oral capsules, plasma Study Day 21, mean value one compartment model
Method: The study is conducted as a double-blind, placebo-controlled, sequential, ascending dose level, multiple dose study, including men and women. Sixteen subjects are assigned to each of three sequential cohorts: 200 mg BID, 400 mg BID, and 800 mg BID of R-flurbiprofen, each with matched placebo BID. Each cohort contains a 3:1 ratio of assignment to active drug (n=12) versus placebo (n=4), resulting in 4 treatment groups of 12 subjects each after combining the 3 placebo groups. The study is balanced by site and stratified by gender. Subjects receive either R-flurbiprofen at the specified dose or a matched placebo orally for 21 days. Blood and urine samples are collected for laboratory safety data at Study Day 1, Study Day 21, and End of Study (30-Day Follow Up) visit. Blood and CSF are collected for pharmacokinetic and biomarker measures at Study Day 1 and after 21 days of treatment with the study drug.
Subjects are instructed to take 1 capsule from Bottle A and 1 capsule from Bottle B 2 times per day (BID) for 20 days; Bottles A and B may contain R-flurbiprofen or placebo. The intraday dosing interval is approximately 12 hours, and the study drug is taken at approximately the same time each day. After 20 days (i.e., on Study Day 21), study participants undergo a pharmacokinetic study, as described below. Daily doses for the 4 groups of the study are: • 400 mg R-flurbiprofen (given as one 200 mg capsule and 1 placebo capsule BID) • 800 mg R-flurbiprofen (given as one 400 mg capsule and 1 placebo capsule BID) • 1600 mg R-flurbiprofen (given as two 400 mg capsules BID)
Blood and urine samples are collected on Study Day 21 from fasted participants for clinical chemistries, hematology, coagulation parameters, and urinalysis. Blood samples are collected on Study Day 21 at 0.5, 1, 2, 4, and 6 hours, and, if possible, 8 and 24 hours, after administration of the final dose of study drug. The total amount of blood collected for the pharmacokinetic analyses is approximately 64 mL. All blood samples for PK/PD analysis are analyzed for both R-flurbiprofen and S-flurbiprofen, and the extent of bioinversion of R-flurbiprofen to S-flurbiprofen is assessed.
The plasma concentration time profile of R-flurbiprofen is analyzed using nonlinear modeling, and preliminary estimates of PK parameters are obtained. Estimates include individual and mean half-life, clearance, AUC, Cmax, Tmax, and average steady-state concentration. Cerebrospinal fluid levels of R-flurbiprofen are summarized. If plasma concentrations over time are similar to those found in other patient populations, Bayesian estimation is used to estimate population PK parameters, allowing the PK parameters observed in this population to be evaluated in the context of data observed in additional clinical studies. Estimates include the mean and individual PK parameters as well as the magnitude of intersubject variability.
A clinical trial was conducted as described in Example 5, above. Pharmacokinetic parameters were determined using WinNonlin® Version 4.0 (Pharsight, Mountain View, Calif.). A one compartment model with first order elimination and uniform weighting was used with WinNonlin estimated parameter boundaries for absorption rate (K01), elimination rate (K10) and volume (V_F). Individual and mean value parameters derived include K10 half-life, Cmax (maximum plasma concentration), Tmax (time of maximum plasma concentration), AUC (area under the plasma time and concentration curve), and Cl_F (clearance). The model calculates the concentration at time T as follows: C(T)=D*K01/V/(K01−K10)*(EXP(−K10*T)−EXP(−K01*T)) (1), where C(T) is concentration at time T; D=dose; V is volume; V_F is volume of distribution over systemic availability; K01 is the absorption rate constant; K10 is elimination rate constant; CL_F is clearance over systemic availability; and T is time. […]

[6] = test system: Aβ42; details: transgenic mouse model; cited from earlier work
[7] = test system: patients having mild cognitive impairment; details: cited from earlier work
[8] = 200 mg BID group, modeled as single 200 mg dose
[9] = 400 mg BID group, modeled as single 400 mg dose
[10] = 800 mg BID group, modeled as single 800 mg dose

Sequence of cytochrome P450 (CYP) 2C9 (P11712 whole entry): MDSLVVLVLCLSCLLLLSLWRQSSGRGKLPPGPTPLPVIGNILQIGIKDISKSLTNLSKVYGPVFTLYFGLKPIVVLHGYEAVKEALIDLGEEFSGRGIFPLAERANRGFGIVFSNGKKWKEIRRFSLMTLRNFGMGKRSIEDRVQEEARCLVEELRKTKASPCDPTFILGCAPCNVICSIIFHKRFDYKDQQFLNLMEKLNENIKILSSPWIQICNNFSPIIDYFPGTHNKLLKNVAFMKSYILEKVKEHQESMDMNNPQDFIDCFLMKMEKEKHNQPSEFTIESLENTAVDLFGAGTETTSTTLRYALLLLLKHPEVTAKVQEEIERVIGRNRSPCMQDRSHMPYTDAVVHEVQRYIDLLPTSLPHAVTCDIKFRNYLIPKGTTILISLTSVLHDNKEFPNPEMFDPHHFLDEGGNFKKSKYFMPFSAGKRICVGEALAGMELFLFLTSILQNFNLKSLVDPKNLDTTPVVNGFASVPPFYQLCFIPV

CC(C(=O)O)c1ccc(-c2ccccc2)c(F)c1 (racemic) [flurbiprofen, (R,S)-(2-fluoro-biphenylyl)propionic acid, reference compound]
inhibition of the metabolism of drugs that are substrates of CYP2C9 [1]: inhibit the metabolism

COc1ccc2cc([C@H](C)C(=O)O)ccc2c1 [Naproxen]
efficacy for treating AD [2]: failed to show efficacy

C[C@@H](C(=O)O)c1ccc(-c2ccccc2)c(F)c1 [R-flurbiprofen]
effect on Aβ42 [3]: lower Aβ42
inhibition of COX activity [4]: negligibly inhibits
AUC [5, 8]: 246 µg·h/mL
CL_F [5, 8]: 812 mL/h
K10_HL [5, 8]: 6.56 h
Tmax [5, 8]: 2.28 h
AUC [5, 9]: 577 µg·h/mL
CL_F [5, 9]: 693 mL/h
K10_HL [5, 9]: 8.04 h
Tmax [5, 9]: 1.58 h
AUC [5, 10]: 487 µg·h/mL
CL_F [5, 10]: 1642 mL/h
K10_HL [5, 10]: 5.90 h
Tmax [5, 10]: 0.86 h
inhibition of the metabolism of drugs that are substrates of CYP2C9 [1]: inhibit the metabolism
effect on Aβ42 [6]: lower Aβ42

CS(=O)(=O)c1ccc(C2=C(c3ccccc3)C(=O)OC2)cc1 [rofecoxib]
prevention of the development of Alzheimer's disease ([7]; large prevention clinical trial): failed to prevent the development of Alzheimer's disease
patients who developed AD ([7]; large prevention trial, 4.5% for placebo): 6.4%
efficacy for treating AD [2]: failed to show efficacy
